Source: US9801922B2, “Compositions and methods of treating cancer” (UNIVERSITY OF IOWA RESEARCH FOUNDATION, priority 2011, dated 2017)

Assays:
[1] = tested on: SUM159 human breast cancer cells; test: ALDEFLUOR assay of ALDH positive (cancer stem) cell fraction; assay type: cell-based; conditions: for percentage of ALDH positive cell population: 100 μM BSO, 1 μM DTPP 24 h, 500 nM AUR 15 min, control 2.61%; for ALDH positive cell population decreased to (relative to control): single agent
Experimental: FIG. 16: The fraction of Aldehyde dehydrogenase activity positive (ALDH+) cancer cells (also known as early progenitor cancer stem cells) is decreased in SUM159 human breast cancer cells treated with inhibitors of glutathione and thioredoxin metabolism (BSO, AUR, respectively) combined with DTPP. Asynchronously growing cultures of SUM159 were incubated with 100 μM BSO and/or 1 μM DTPP for 24 hours in HMEC media. 500 nM AUR were added into cell culture 15 minutes before the assay. Monolayer cultures were harvested and trypsinized, washed once with PBS and labeled 40 minutes in PBS at 37° C. with BAAA (1 μmol/1 per 1 x 10^6 cells). The negative controls were also added with 50mmol/L diethylaminobenzaldehyde (DEAB). After labeling, Hochest dye for viability assay was added and then kept on ice. Each sample was then analyzed for the ALDH positive cell percentage of 100,000 cells by flow cytometry. Errors represent Mean ±1 SD of 3 samples from two separate experiments […], * p <0.05 as compared to Control.
Estimation of Cancer stem cell fractions using the Aldefluor assay: The ALDEFLUOR kit (StemCell Technologies, Durham, N.C., USA) was used to determine the subpopulation of cancer cells with a high ALDH enzymatic activity. SUM159 human breast cancer cells were plated and treated as described earlier in clonogenic survival experiment. After the exposure, the cells were trypsinized and washed with PBS once then re-suspended in ALDEFLUOR assay buffer containing ALDH substrate (BAAA, 1 μmol/l per 1×10^6 cells) and incubated for 40 minutes at 37° C. As negative control, for each sample of cells an aliquot was treated with 50 mmol/L diethylaminobenzaldehyde (DEAB), a specific ALDH inhibitor. In order to sort out non-viable cells, each sample received 4 μg/ml of Hoechst 33258 (Molecular Probes, Invitrogen). Cells were filtered through […] and kept on ice until analysis. Samples were analyzed by using a Becton Dickinson LSR II with 355 nm, 488 nm, and 633 nm lasers. (Becton Dickinson Immunocytometry System, INC., Mountain View, Calif.). The ALDH positive cells of 100,000 cells were determined by using the sorting gate established with DEAB negative control and Hochest viability control. The ALDH positive cells were represented by percentage of total 100,000 cell events.

[2] = tested on: HMECs; test: MitoSOX red oxidation, HMEC; assay type: cell-based, human
Experimental: (§1) FIGS. 4A-4C: MitoSOX oxidation in SUM159, MDA-MB231 and HMECs cells treated with BSO, DTPP and AUR. Asynchronously growing cultures of SUM159 (Panel A) MDA-MB231 (Panel B) and HMECs (Panel C) were plated and treated as described in FIG. 1. Monolayer cultures were harvested and trypsinized, washed once with PBS and labeled 20 minutes with 2 μM MitoSOX (in 0.1% DMSO) in PBS containing 5 mM pyruvate at 37° C. Each sample was then analyzed for the Mean fluorescence Intensity (MFI) of 10,000 cells by flow cytometry. Samples were assayed in triplicate; mean±1 SD of 1 experiment containing 3 treatment dishes per group (n=3), * or ^p<0.001 as compared to Control.
(§2) MitoSOX™ red oxidation to estimate mitochondrial superoxide production: To determine if DTPP can alter steady-state levels of superoxide originating from mitochondria in SUM159, MDA-MB231 and HMEC cells, the cationic superoxide sensitive dye, MitoSOX™red (Molecular Probes), was used. Cells were plated and treated as described earlier in clonogenic survival experiment. After the exposure, cells were trypsinized and washed with 5 mM/L pyruvate containing PBS once then labeled with MitoSOX™red (2 μM, in 0.1% DMSO, 20 minutes) at 37° C. After labeling, cells were kept on ice. Samples were analyzed using a FACScan flowcytometer (Becton Dickinson Immunocytometry System, INC., Mountain View, Calif.) (excitation 488 nm, emission 585 nm band-pass filter). The mean fluorescence intensity of 10,000 cells was analyzed in each sample and corrected for autofluorescence from unlabeled cells. The MFI data was normalized to control levels.

[3] = tested on: SUM159 cells; test: MitoSOX red oxidation, SUM159; assay type: cell-based, human
Experimental: as §1, §2

Row | SMILES | percentage of ALDH positive cell population [1] | ALDH positive cell population decreased to (relative to control) [1] | change in MitoSOX oxidation, in words [2] | change in MitoSOX oxidation, in words ([3]; SUM159) | effect on ALDH positive cell population, in words ([1]; 100 μM BSO 24 h) | increase in MitoSOX oxidation ([2]; 1 μM DTPP, 100 μM BSO 24 h, 500 nM AUR 15 min) | increase in MitoSOX red oxidation relative to control ([3]; SUM159, 1 μM DTPP, 100 μM BSO 24 h, 500 nM AUR 15 min) | total amount of mitochondrial O2.- of SUM159 cells relative to HMECs after DTPP ([3]; SUM159 vs HMEC)
1 | CC[PH](CC)(CC)[Au][S][C@@H]1O[C@H](COC(C)=O)[C@@H](OC(C)=O)[C@H](OC(C)=O)[C@H]1OC(C)=O [AUR, S-triethylphosphinegold(I)-2,3,4,6-tetra-O-acetyl-1-thio-β-D-glucopyranoside] | 1.11% | around 50% | no effects on MitoSOX oxidation | did not exhibit any change in MitoSOX oxidation |  |  |  | 
2 | CCCCS(=N)(=O)CCC(N)C(=O)O [BSO, L-buthionine-[S,R]-sulfoximine, reference compound] |  |  | no effects on MitoSOX oxidation | did not exhibit any change in MitoSOX oxidation | not able to decrease the ALDH positive cell population |  |  | 
3 | CCCCCCCCCC[P+](c1ccccc1)(c1ccccc1)c1ccccc1 [DTPP, Decyl-Triphenylphosphonium] | 1.16% | around 50% |  |  |  | 10 fold | 9 fold | 2 fold
